Counter-ions that a name gives are not always drawn. Like-named read-outs stand apart in the source and are kept apart here.
Experiments:
[1] = molecular target: T1, HO-2 (rat brain) (Rattus norvegicus, UniProt P23711); experiment: HO enzymatic activity, rat brain microsomal fraction (CO formation from methemalbumin); assay type: biochemical; settings: CO formation from methemalbumin, mean ± SD of replicate experiments
T1 construct: brain microsomes were used as a source of HO-2; from tissue; host or cells: brain microsomal fraction of adult male Sprague-Dawley rats
T1 sequence (P23711 1-315): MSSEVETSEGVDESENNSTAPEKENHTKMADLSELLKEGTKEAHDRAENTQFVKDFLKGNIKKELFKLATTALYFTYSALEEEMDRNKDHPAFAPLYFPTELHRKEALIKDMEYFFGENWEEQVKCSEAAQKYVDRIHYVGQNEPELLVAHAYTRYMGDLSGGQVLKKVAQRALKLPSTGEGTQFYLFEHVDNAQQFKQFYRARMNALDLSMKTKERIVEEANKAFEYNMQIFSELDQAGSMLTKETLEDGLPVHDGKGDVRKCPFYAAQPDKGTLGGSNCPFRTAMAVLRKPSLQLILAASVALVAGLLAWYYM
Method: (§1) Incubations for HO activity analysis were done under conditions for which the rate of CO formation (pmol CO×min^−1×mg protein^−1) was linear with respect to time and microsomal protein concentration. Briefly, reaction mixtures (150 μL) consisting of 100 mM phosphate buffer (pH 7.4), 50 μM methemalbumin, and 1 mg/mL protein were pre-incubated with the inhibitors at final concentrations ranging from 0.1-100 μM for 10 minutes at 37° C. Reactions were initiated by adding NADPH at a final concentration of 1 mM and incubations were performed for an additional 15 minutes at 37° C.
(§2) Incubations for HO activity analysis were done under conditions for which the rate of CO formation (pmol CO/mg protein/minute) was linear with respect to time and microsomal protein concentration. Briefly, reaction mixtures (150 μL) consisting of 100 mM phosphate buffer (pH 7.4), 50 μM methemalbumin and 1 mg/mL protein were pre-incubated with the vehicle (ethanol or water in which the inhibitors were dissolved), or inhibitors at final concentrations ranging from 0.1-1000 μM for 10 minutes at 37° C. Reactions were initiated by adding β-NADPH at a final concentration of 1 mM and incubations were carried out for an additional 15 minutes at 37° C. Reactions were stopped by instantly freezing the reaction mixture on pulverized dry ice and CO formation was measured by gas chromatography using a TA 3000R Process Gas Analyzer (Trace Analytical/Ametek, Newark, Del., USA).
(§3) The values on the abscissa represent the decimal logarithm of the inhibitor's concentration (in μM), whereas the values of the activity on the ordinate are expressed as a percentage of the control experiments without inhibitor.
(§4) The IC50 values for the replicate experiments were employed to generate the reported standard deviation value.

[2] = molecular target: T2, HO-1 (rat spleen) (Rattus norvegicus, UniProt P06762); experiment: HO enzymatic activity, rat spleen microsomal fraction (CO formation from methemalbumin); assay type: biochemical; settings: CO formation from methemalbumin, mean ± SD of replicate experiments
T2 construct: Spleen microsomes were used as a source of HO-1; from tissue; host or cells: spleen microsomal fraction of adult male Sprague-Dawley rats
T2 sequence (P06762 1-289): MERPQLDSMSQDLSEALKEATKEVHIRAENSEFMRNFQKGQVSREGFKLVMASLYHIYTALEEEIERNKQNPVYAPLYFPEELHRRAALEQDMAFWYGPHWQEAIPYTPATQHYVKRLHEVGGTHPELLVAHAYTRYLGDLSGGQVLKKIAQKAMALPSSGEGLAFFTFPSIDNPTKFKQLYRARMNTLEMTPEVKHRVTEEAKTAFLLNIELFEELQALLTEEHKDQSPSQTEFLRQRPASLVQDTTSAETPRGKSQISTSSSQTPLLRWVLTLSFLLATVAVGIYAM
Method: as §1, §2, §3, §4

[3] = read-out: IC50 HO-1 (rat spleen/μM)
[4] = read-out: IC50 HO-2 (rat brain)/μM)

Structure (SMILES) | IC50 ([1]; IC50 HO-2 (rat brain)/μM)) [µM] | IC50 ([2]; IC50 HO-1 (rat spleen/μM)) [µM] | IC50 [2, 3] [µM] | IC50 [1, 4] [µM]
Nc1ccccc1SC[C@@H]1CO[C@](CCc2ccc(Cl)cc2)(Cn2ccnc2)O1 [QC-3, (2S,4S)-2-[2-(4-chlorophenyl)ethyl]-2-[(1H-imidazol-1-yl)methyl]-4-[{(2-aminophenyl)thio}methyl]-1,3-dioxolane dihydrochloride] | 55 ± 26 |  |  | 
Cc1ccc(S(=O)(=O)OC[C@@H]2CO[C@](CCc3ccc(Cl)cc3)(Cn3ccnc3)O2)cc1 [QC-4, (2S,4S)-2-[2-(4-chlorophenyl)ethyl]-2-[(1H-imidazol-1-yl)methyl]-4-[(p-toluenesulfonyloxy)methyl]-1,3-dioxolane dihydrochloride] | 48 ± 6 | 19 ± 9 |  | 
Cc1ccc(S(=O)(=O)OC[C@@H]2CO[C@](CCc3ccc(Cl)cc3)(Cn3ccnc3)O2)cc1 [QC-6, (2S,4S)-2-[2-(4-chlorophenyl)ethyl]-2-[(1H-imidazol-1-yl)methyl]-4-[(p-toluenesulfonyloxy)methyl]-1,3-dioxolane] | 23 ± 6 | 21 ± 2 |  | 
Nc1cccc(SC[C@@H]2CO[C@](CCc3ccc(Cl)cc3)(Cn3ccnc3)O2)c1 [QC-7, (2S,4S)-2-[2-(4-chlorophenyl)ethyl]-2-[(1H-imidazol-1-yl)methyl]-4-[{(3-aminophenyl)thio}methyl]-1,3-dioxolane dihydrochloride] | 21 ± 1 | 1.5 ± 0.1 |  | 
COc1ccc(OC[C@H]2CO[C@](CCc3ccc(Cl)cc3)(Cn3ccnc3)O2)cc1 [QC-8, (2S,4S)-2-[2-(4-chlorophenyl)ethyl]-2-[(1H-imidazol-1-yl)methyl]-4-[(4-methoxyphenyloxy)methyl]-1,3-dioxolane hydrochloride] |  |  | 28 ± 15 | 29 ± 6
O=C(CCc1ccc(Cl)cc1)Cn1ccnc1 [QC-9, 4-(4-chlorophenyl)-1-(1H-imidazol-1-yl)-2-butanone hydrochloride] |  |  |  | 43 ± 5
Nc1cccc(SC[C@H]2CO[C@](CCc3ccc(Cl)cc3)(Cn3ccnc3)O2)c1 [QC-20, (2S,4R)-2-[2-(4-chlorophenyl)ethyl]-2-[(1H-imidazol-1-yl)methyl]-4-[{(3-aminophenyl)thio}methyl]-1,3-dioxolane hydrochloride] |  | 5.2 ± 0.4 |  | 
Cc1ccc(S(=O)(=O)OC[C@H]2CO[C@@](CCc3ccc(Cl)cc3)(Cn3ccnc3)O2)cc1 [QC-21, (2R,4R)-2-[2-(4-chlorophenyl)ethyl]-2-[(1H-imidazol-1-yl)methyl]-4-[(p-toluenesulfonyloxy)methyl]-1,3-dioxolane] | 23 ± 10 | 0.8 ± 0.3 |  | 
Nc1ccccc1SC[C@H]1CO[C@@](CCc2ccc(Cl)cc2)(Cn2ccnc2)O1 [QC-22, (2R,4R)-2-[2-(4-chlorophenyl)ethyl]-2-[(1H-imidazol-1-yl)methyl]-4-[{(2-aminophenyl)thio}methyl]-1,3-dioxolane dihydrochloride] |  | 87 ± 24 |  | 
COc1cccc(-c2nnn[nH]2)c1 [QC-28, 5-(3-methoxyphenyl)-1H-tetrazole] |  |  | > 100 | > 100
Nc1cc(Cl)ccc1-c1nnn[nH]1 [QC-29, 5-(2-amino-4-chlorophenyl)-1H-tetrazole] |  |  | > 100 | > 100
CCC(O)Cn1ccnc1 (centres unmarked) [QC-31, 1-(1H-imidazol-1-yl)butan-2-ol hydrochloride] | > 100 | 131 ± 38 |  | 
COc1ccc(CCC(O)Cn2ccnc2)cc1 (centres unmarked) [QC-33, 4-(4-methoxyphenyl)-1-(1H-imidazol-1-yl)butan-2-ol hydrochloride] | 6 ± 4 | 0.7 ± 0.1 |  | 
CCC(COC(C)=O)n1ccnc1 (centres unmarked) [QC-36, 1-acetoxy-2-(1H-imidazol-1-yl)-butane] |  |  | > 100 | > 100
Fc1ccc(COC(CCc2ccc(Cl)cc2)Cn2ccnc2)cc1 (centres unmarked) [QC-37, 4-(4-Chlorophenyl)-2-(4-fluorobenzyloxy)-1-(1H-imidazol-1-yl)butane hydrochloride] |  |  | 0.9 ± 0.3 | 1 ± 0.01
c1c[nH]cn1 [QC-43, Imidazole, reference compound] | > 100 | > 100 |  | 
Cc1ncc[nH]1 [QC-45, 2-methylimidazole, reference compound] |  |  | > 100 | > 100
Oc1ccc(OC[C@H]2CO[C@@](CCc3ccc(Cl)cc3)(Cn3ccnc3)O2)cc1 [QC-46, (2R,4S)-4-{2-[2-(4-Chlorophenyl)ethyl]-2-imidazol-1-ylmethyl-[1,3]dioxolan-4-ylmethoxy}phenol hydrochloride] |  |  | 1.8 ± 0.5 | 7.1 ± 0.7

Source: patent US20120020915A1, “Compounds and Methods for Treating Cancer and Diseases of the Central Nervous System” (QUEENS UNIVERSITY AT KINGSTON, priority 2007, published 2012)
